From the Deep4Chem optical property database

Test: photoluminescence quantum yield (fraction); solvent given as SMILES
[1] = in O=P(c1ccccc1)(c1ccccc1)c1ccccc1Oc1ccccc1P(=O)(c1ccccc1)c1ccccc1

C[Si](C)(C)C#Cc1cc2ccc3cc(C#C[Si](C)(C)C)cc4ccc(c1)c2c34 gave a photoluminescence quantum yield (in Cc1ccccc1) of 0.19.
Cc1ccc(-c2ccc3ccc4cc(C(C)(C)C)cc5ccc2c3c45)cc1 showed a photoluminescence quantum yield (in C1CCOC1) of 0.41 and a photoluminescence quantum yield (in ClCCl) of 0.38.
Work on COC(=O)C1=C(C(=O)OC)C2(c3ccccc3-c3ccccc32)[C@@H](c2ccc(C)cc2)C=C2c3cc(OC)c(OC)cc3CCN21 yielded a photoluminescence quantum yield (in ClCCl) of 0.00491.
S=P1(c2ccccc2)c2cccc3c4c5ccccc5c5ccccc5c4c4ccc1n4c23 (stereo unspecified) gave a photoluminescence quantum yield (in ClCCl) of 0.24.
In the case of CCn1c2cc(-c3cccs3)ccc2c2ccc(-c3cccs3)cc21, the photoluminescence quantum yield (in ClCCl) is reported as 0.61.
For COc1ccccc1-c1nc(-c2ccccc2)c(-c2ccccc2)[nH]1, the photoluminescence quantum yield (in CO) was 0.29.
With C[n+]1cc2ccc3c[n+](C)cc4ccc(c1)c2c34 the photoluminescence quantum yield (in CC#N) was 0.6.
Nc1ncnc2c1c(-c1ccc3ccccc3c1)nn2[C@H]1C[C@H](O)[C@@H](CO)O1 gave a photoluminescence quantum yield (in C1COCCO1) of 0.11, a photoluminescence quantum yield (in CC#N) of 0.1 and a photoluminescence quantum yield (in CC(C)O) of 0.16. For the same compound, the photoluminescence quantum yield (in CCO) was 0.14, the photoluminescence quantum yield (in CCOC(C)=O) was 0.08 and the photoluminescence quantum yield (in CN(C)C=O) was 0.13. For the same compound, the photoluminescence quantum yield (in CO) was 0.14, the photoluminescence quantum yield (in CS(C)=O) was 0.15 and the photoluminescence quantum yield (in OCC(O)CO) was 0.11. It also gave a photoluminescence quantum yield (in OCCO) of 0.21.
In the case of COc1ccc(-c2[nH]c(=O)n3c2-c2ccccc2C3=O)c(OC)c1, the photoluminescence quantum yield (in CC#N) is reported as 0.48, the photoluminescence quantum yield (in CO) is reported as 0.39 and the photoluminescence quantum yield (in ClCCl) is reported as 0.57.
COCCN(CCOC)c1ccc(/C=C/c2sc3c4nc(C)sc4ccc3[n+]2C)cc1 showed a photoluminescence quantum yield (in ClC(Cl)Cl) of 0.05.
For Cc1cccc(C2=Cc3c4ccccc4cc[n+]3[B-](F)(F)O2)c1, the photoluminescence quantum yield (in ClC(Cl)Cl) was 0.06.
In the case of Cc1ccc(-c2ccc(/C=C/c3ccccc3)cn2)nc1, the photoluminescence quantum yield (in CC#N) is reported as 0.67.
Work on C/C(=C\c1ccc(C)cc1)c1nc2ccccc2s1 yielded a photoluminescence quantum yield (in C1CCCCC1) of 0.003 and a photoluminescence quantum yield (in CO) of 0.001.
CC1(C)C(/C=C/C2=C(Oc3ccc(CCN=C=S)cc3F)C(=C/C=C3/N(CCCS(=O)(=O)[O-])c4ccccc4C3(C)C)/CCC2)=[N+](CCCS(=O)(=O)[O-])c2ccccc21 showed a photoluminescence quantum yield (in CO) of 0.14.
With COC(=O)COc1ccc(/C=C/C2=[N+]3C(=C(c4ccccc4)c4c(C)cc(C)n4[B-]3(F)F)C(C)=C2)cc1 the photoluminescence quantum yield (in CO) was 1.
Cc1ccc(/C=C/c2ccccc2-[n+]2noc([O-])c2C)cc1 showed a photoluminescence quantum yield (in C1CCCCC1) of 0.0019 and a photoluminescence quantum yield (in CC#N) of 0.0019.
CC(C)(C)c1ccc2c(c1)c1cc(C(C)(C)C)ccc1n2-c1ccccc1-c1nc(-c2ccccc2-n2c3ccc(C(C)(C)C)cc3c3cc(C(C)(C)C)ccc32)nc(-c2ccccc2P(=O)(c2ccccc2)c2ccccc2)n1 gave a photoluminescence quantum yield [1] of 0.45.
For c1ccc(-c2nc(-c3ccccc3)nc(-c3cc(-n4c5ccccc5c5ccccc54)c(-n4c5ccccc5c5ccccc54)c(-n4c5ccccc5c5ccccc54)c3)n2)cc1, the photoluminescence quantum yield (in O=P(c1ccccc1)(c1ccccc1)c1ccc2oc3ccc(P(=O)(c4ccccc4)c4ccccc4)cc3c2c1) was 0.82 and the photoluminescence quantum yield [1] was 1.
In the case of COC(=O)c1ccc2c3ccc(C(=O)OC)c4c(C(=O)OC)ccc(c5ccc(C(=O)OC)c1c25)c43, the photoluminescence quantum yield (in C1COCCO1) is reported as 0.99, the photoluminescence quantum yield (in CC#N) is reported as 0.97 and the photoluminescence quantum yield (in CC(C)=O) is reported as 0.99. For the same compound, the photoluminescence quantum yield (in CC(C)O) was 0.96, the photoluminescence quantum yield (in CCCCO) was 0.96 and the photoluminescence quantum yield (in CN(C)C=O) was 0.95. For the same compound, the photoluminescence quantum yield (in CO) was 0.99 and the photoluminescence quantum yield (in ClC(Cl)Cl) was 0.83.
Work on O=P1(c2ccccc2)C(c2ccc(C(F)(F)F)cc2)=Cc2ccccc21 (stereo unspecified) yielded a photoluminescence quantum yield (in C1CCOC1) of 0.65.
In the case of O=C1CCCC2=C1C(c1cccc(Cl)c1)c1c(c3ccccc3oc1=O)N2 (stereo unspecified), the photoluminescence quantum yield (in CS(C)=O) is reported as 0.6.
Work on O=C1/C(=C\c2ccc3oc4ccccc4c3c2)S(=O)(=O)c2ccccc21 yielded a photoluminescence quantum yield (in C1CCOC1) of 0.037, a photoluminescence quantum yield (in C1COCCO1) of 0.047 and a photoluminescence quantum yield (in CC#N) of 0.041. For the same compound, the photoluminescence quantum yield (in CC(C)=O) was 0.055, the photoluminescence quantum yield (in CCOC(C)=O) was 0.048 and the photoluminescence quantum yield (in CN(C)C=O) was 0.192. For the same compound, the photoluminescence quantum yield (in CO) was 0.025, the photoluminescence quantum yield (in CS(C)=O) was 0.209 and the photoluminescence quantum yield (in Cc1ccccc1) was 0.116. The photoluminescence quantum yield (in ClC(Cl)Cl) was 0.036 and the photoluminescence quantum yield (in ClCCl) was 0.092.
F[B-]1(F)N2C=CN=CC2=[N+]2[N+]1=Cc1c(-c3ccccc3)cc(-c3ccccc3)n1[B-]2(F)F gave a photoluminescence quantum yield (in ClCCl) of 0.49.
Compound N#Cc1c(N2CCCCC2)cc(-c2cccc3ccccc23)c2c1CCc1ccccc1-2 has a photoluminescence quantum yield (in C1CCOC1) of 0.42.
C(#Cc1ccccc1)C1=Cc2ccc3ccccc3c2NB1c1ccccc1 gave a photoluminescence quantum yield (in C1CCCCC1) of 0.72.
In the case of CCCCN1c2ccccc2B(c2ccccc2C(F)(F)F)c2ccccc21, the photoluminescence quantum yield (in ClCCl) is reported as 0.9.
Work on c1ccc(-c2cc(-c3ccc(N4c5ccccc5C5(c6ccccc64)c4ccccc4N(c4ccc(-c6cc(-c7ccccc7)nc(-c7ccccc7)n6)cc4)c4ccccc45)cc3)nc(-c3ccccc3)n2)cc1 yielded a photoluminescence quantum yield [1] of 0.73.
c1ccc(-c2cnc3nn4ccccc4c3c2)cc1 gave a photoluminescence quantum yield (in C1CCOC1) of 0.38.
N#Cc1cc(-n2c3ccccc3c3ccccc32)c(-n2c3ccccc3c3ccccc32)cc1-c1cc(-n2c3ccccc3c3ccccc32)c(-n2c3ccccc3c3ccccc32)cc1C#N showed a photoluminescence quantum yield (in Cc1ccccc1) of 0.46.
COc1c2ccccc2c(OC)c2c(C#Cc3ccccc3)c3cc4sccc4cc3c(C#Cc3ccccc3)c12 gave a photoluminescence quantum yield (in C1CCOC1) of 0.13, a photoluminescence quantum yield (in Cc1ccccc1) of 0.1 and a photoluminescence quantum yield (in ClCCl) of 0.11.
In the case of COc1ccc(-c2csc(/C(C#N)=N\Nc3ccc(C#N)cc3)n2)cc1, the photoluminescence quantum yield (in CC#N) is reported as 0.001, the photoluminescence quantum yield (in CCO) is reported as 0.002 and the photoluminescence quantum yield (in CN(C)C=O) is reported as 0. The photoluminescence quantum yield (in Cc1ccccc1) was 0.002 and the photoluminescence quantum yield (in ClCCl) was 0.002.
Work on CCOC(=O)c1ccccc1-c1c2ccc(=O)cc-2oc2cc(OC(=O)[C@H](CSCc3ccc(C)cc3)NC(=O)OC(C)(C)C)ccc12 yielded a photoluminescence quantum yield (in C1CCOC1) of 0.006, a photoluminescence quantum yield (in CC#N) of 0.004 and a photoluminescence quantum yield (in CCO) of 0.043. For the same compound, the photoluminescence quantum yield (in CS(C)=O) was 0.025.
OB(O)c1ccc(-c2ccc(N(c3ccccc3)c3ccccc3)cc2)cc1 showed a photoluminescence quantum yield (in C1CCCCC1) of 0.72, a photoluminescence quantum yield (in C1CCOC1) of 0.65 and a photoluminescence quantum yield (in CC#N) of 0.68. The photoluminescence quantum yield (in CCO) was 0.81, the photoluminescence quantum yield (in CCOC(C)=O) was 0.66 and the photoluminescence quantum yield (in CCOCC) was 0.65. It also gave a photoluminescence quantum yield (in CO) of 0.62.
Compound COc1cc(OC)c(C2=C3C(C)=CC(C)=[N+]3[B-](F)(F)n3c(C)cc(C)c32)c(OC)c1 has a photoluminescence quantum yield (in C1CCOC1) of 0.78, a photoluminescence quantum yield (in CC#N) of 0.55 and a photoluminescence quantum yield (in CC(=O)C(C)(C)C) of 0.69. The photoluminescence quantum yield (in CC(C)=O) was 0.8, the photoluminescence quantum yield (in CCCCCC) was 0.95 and the photoluminescence quantum yield (in CCOC(C)=O) was 0.64. For the same compound, the photoluminescence quantum yield (in CO) was 0.68.
In the case of C(#Cc1cccs1)c1ncc(-c2ccccc2)o1, the photoluminescence quantum yield (in ClCCl) is reported as 0.
Work on C(=C\c1ccncn1)/c1ccc(-c2ccco2)cc1 yielded a photoluminescence quantum yield (in ClCCl) of 0.01.
In the case of CC(C)(C)C1Nc2ccccc2C(=O)N1Cc1ccccc1 (stereo unspecified), the photoluminescence quantum yield (in CC#N) is reported as 0.09, the photoluminescence quantum yield (in CO) is reported as 0.034 and the photoluminescence quantum yield (in ClC(Cl)Cl) is reported as 0.055. The photoluminescence quantum yield (in c1ccccc1) was 0.08.
Compound CN(C)c1ccc(/C=C/c2cc(/C=C/c3ccc(N(C)C)cc3)nc(N)n2)cc1 has a photoluminescence quantum yield (in Cc1ccccc1) of 0.65 and a photoluminescence quantum yield (in ClC(Cl)Cl) of 0.55.
Work on COc1ccc(C2=C3C(/C=C/c4cc(OC)c(OC)c(OC)c4)=C(C=O)C(/C=C/c4cc(OC)c(OC)c(OC)c4)=[N+]3[B-](F)(F)n3c(/C=C/c4cc(OC)c(OC)c(OC)c4)c(C=O)c(C=Cc4cc(OC)c(OC)c(OC)c4)c32)cc1 yielded a photoluminescence quantum yield (in ClCCl) of 0.4.
CC[N+]1(CC)CN2C(=N1)C(C(=O)O)=Cc1cc(Cl)ccc12 gave a photoluminescence quantum yield (in O) of 0.352.
With C1=Cc2ccccc2C(=Cc2ccc(-c3cc(-c4ccc(C=C5c6ccccc6C=Cc6ccccc65)cc4)c(-c4ccc(C=C5c6ccccc6C=Cc6ccccc65)cc4)cc3-c3ccc(C=C4c5ccccc5C=Cc5ccccc54)cc3)cc2)c2ccccc21 the photoluminescence quantum yield (in C1CCOC1) was 0.0016.
With CCOC(=O)c1ccc(O)c(-c2[nH]c(=O)n3c2-c2ccccc2C3=O)c1 the photoluminescence quantum yield (in CC#N) was 0.49, the photoluminescence quantum yield (in CO) was 0.4 and the photoluminescence quantum yield (in ClCCl) was 0.59.
F[B-]1(F)n2c(c3ccccc3c2-c2ccccc2)C=C2c3ccccc3C(c3ccccc3)=[N+]21 gave a photoluminescence quantum yield (in C1CCOC1) of 0.57 and a photoluminescence quantum yield (in ClCCl) of 0.88.
In the case of [NH3+]C(Cc1ccc(O)cc1)C(=O)[O-] (stereo unspecified), the photoluminescence quantum yield (in O) is reported as 0.13.
Work on Cc1cccc(C)c1 yielded a photoluminescence quantum yield (in C1CCCCC1) of 0.25.
c1ccc(N(c2ccccc2)c2ccc(-c3ccc4c(c3)C3(c5cc(-c6ccc(N(c7ccccc7)c7ccccc7)cc6)ccc5-4)c4ccccc4N(c4ccccc4)c4ccccc43)cc2)cc1 gave a photoluminescence quantum yield (in ClCCl) of 0.82 and a photoluminescence quantum yield (in c1cc(-n2c3ccccc3c3ccccc32)cc(-n2c3ccccc3c3ccccc32)c1) of 0.86.
For CC(C)(C)c1ccc2oc3nc4oc5cc(-n6c7ccccc7c7ccccc76)ccc5c4cc3c2c1, the photoluminescence quantum yield (in ClC(Cl)Cl) was 0.714.
Work on CCCCCCC(CCCCCC)n1c(=O)c2c3ccc4cccc5c6cccc7ccc(c2c1=O)c(c76)c3c45 yielded a photoluminescence quantum yield (in C1CCCCC1) of 0.32, a photoluminescence quantum yield (in CC#N) of 0.33 and a photoluminescence quantum yield (in CC(C)=O) of 0.27. The photoluminescence quantum yield (in CCCCCC) was 0.32, the photoluminescence quantum yield (in CCO) was 0.3 and the photoluminescence quantum yield (in CCOCC) was 0.34. The photoluminescence quantum yield (in CS(C)=O) was 0.44, the photoluminescence quantum yield (in Cc1ccccc1) was 0.42 and the photoluminescence quantum yield (in ClC(Cl)(Cl)Cl) was 0.37. The photoluminescence quantum yield (in ClC(Cl)Cl) was 0.35.
With C1=Cc2ccccc2C(=Cc2ccc(C=C3c4ccccc4C=Cc4ccccc43)cc2)c2ccccc21 the photoluminescence quantum yield (in C1CCOC1) was 5e-05.
Work on F[B-]1(F)n2c(c(-c3ccccc3)c(-c3cccs3)c2-c2ccccc2)N=C2C(c3ccccc3)=C(c3cccs3)C(c3ccccc3)=[N+]21 yielded a photoluminescence quantum yield (in ClCCl) of 0.
CN(C)c1ccc(C#Cc2ccc3c(N(C)C)cc(-c4ccccc4)cc3c2)cc1 showed a photoluminescence quantum yield (in ClCCl) of 0.76.
With Cc1ccccc1C1=C2C=c3c(oc4ccc(C(C)(C)C)cc34)=[N+]2[B-](F)(F)n2c1cc1c3cc(C(C)(C)C)ccc3oc12 the photoluminescence quantum yield (in C1CCCCC1) was 0.89, the photoluminescence quantum yield (in CCOC(C)=O) was 0.93 and the photoluminescence quantum yield (in CO) was 0.86.
CC1=[N+]2C(=C(c3ccc(N(c4ccccc4)c4ccccc4)cc3)c3ccc(C)n3[B-]2(F)F)C=C1c1cc2n(c1)[B-](F)(F)[N+]1=CC=CC1=C2c1c(C)cc(C)cc1C gave a photoluminescence quantum yield (in C1CCCCC1) of 0.37 and a photoluminescence quantum yield (in CCOC(C)=O) of 0.1.
